{
  "source": "EPA's ToxValDB 9.5",
  "key": {"[1]": {"test_system": "Mus musculus", "conditions": "repeat dose other; oral"}, "[2]": {"test_system": "Rattus norvegicus", "conditions": "M/F"}, "[3]": {"test_system": "Rattus norvegicus", "conditions": "oral; for NOAEL: M/F"}, "[4]": {"test_system": "Gallus sp.", "conditions": "subchronic; duration: 90 days; oral; F; neurotoxicity"}, "[5]": {"test_system": "Anas platyrhynchos", "conditions": "oral"}, "[6]": {"test_system": "Rattus norvegicus", "conditions": "repeat dose other; oral"}, "[7]": {"test_system": "Rattus norvegicus", "conditions": "subchronic, oral, Fischer 344"}, "[8]": {"test_system": "Mus musculus", "conditions": "subchronic, oral"}, "[9]": {"test_system": "Mus musculus", "conditions": "uterotrophic, duration: 3 days, Active"}, "[10]": {"test_system": "Rattus norvegicus", "conditions": "uterotrophic; duration: 3 days; oral; Active"}, "[11]": {"test_system": "Rattus norvegicus", "conditions": "chronic; duration: 22 months; oral; drinking water; M/F; Spartan Sprague-Dawley; hematological"}, "[12]": {"test_system": "Rattus norvegicus", "conditions": "for LOAEL / NOAEL: gavage"}, "[13]": {"test_system": "Oryctolagus sp."}, "[14]": {"test_system": "Mus musculus", "conditions": "acute; oral"}, "[15]": {"test_system": "Mus musculus", "conditions": "oral"}, "[16]": {"test_system": "Mus musculus", "conditions": "oral, drinking water, B6C3F1, immunological"}, "[17]": {"test_system": "Mus musculus", "conditions": "reproduction developmental, oral, gavage, M, NMRI, generation: P0"}, "[18]": {"test_system": "Canidae", "conditions": "chronic; duration: 36 months; oral; diet; Dog Other"}, "[19]": {"conditions": "subchronic, oral, lesions in liver, kidney and thyroid"}, "[20]": {"conditions": "reproduction developmental, duration: 43 days, oral, F, Sprague-Dawley"}, "[21]": {"conditions": "reproduction developmental, duration: 43 days, oral, M, Sprague-Dawley"}, "[22]": {"conditions": "reproduction developmental, duration: 43 days, oral, Sprague-Dawley, generation: F1"}, "[23]": {"conditions": "developmental, gavage, M, neurobehavioral effects"}},
  "data": [
    {"smiles": "c1ccc2c(c1)cc1ccc3cccc4ccc2c1c34", "note": "[Benzo[a]pyrene]", "values": [
      {"measurement": "LOAEL", "setting": "[1]", "value": 10, "unit": "mg/kg-day"},
      {"measurement": "NOAEL", "setting": "[1]", "value": 1, "unit": "mg/kg-day"},
      {"measurement": "LOAEL", "setting": "[2]; developmental, duration: 9 days, inhalation, reduced embryo/fetal survival", "value": 0.025, "unit": "mg/m3"}
    ]},
    {"smiles": "N#CCC#N", "note": "[Propanedinitrile]", "values": [
      {"measurement": "NOAEL", "setting": "[3]; subchronic, duration: 90 days, gavage, Crl:CD(SD) BR, hepatic", "value": 0.4, "unit": "mg/kg-day"}
    ]},
    {"smiles": "CCOP(=S)(Oc1ccc([N+](=O)[O-])cc1)c1ccccc1", "note": "(centres undefined) [EPN]", "values": [
      {"measurement": "LEL", "setting": "[4]", "value": 0.1, "unit": "mg/kg-day"},
      {"measurement": "NOEL", "setting": "[4]", "value": 0.01, "unit": "mg/kg-day"}
    ]},
    {"smiles": "[Cl][Cd][Cl]", "note": "[Cadmium chloride]", "values": [
      {"measurement": "LOAEL", "setting": "[5]", "value": 20, "unit": "mg/kg-day"},
      {"measurement": "NOAEL", "setting": "[5]", "value": 1.45, "unit": "mg/kg-day"},
      {"measurement": "LOAEL", "setting": "[6]", "value": 10, "unit": "mg/kg-day"},
      {"measurement": "NOAEL", "setting": "[6]", "value": 1, "unit": "mg/kg-day"}
    ]},
    {"smiles": "O=C1CN(/N=C/c2ccc([N+](=O)[O-])o2)C(=O)N1", "note": "[Nitrofurantoin]", "values": [
      {"measurement": "NOEL", "setting": "[7]; duration: 13 weeks, diet, M/F, Deaths + Body Weight Changes: decrease + Urinalysis: Bright yellow + Absolute Organ Weight: Liver increase + Relative Organ Weight: Liver …", "value": "< 57.6", "unit": "mg/kg-day"},
      {"measurement": "NOAEL", "setting": "[8]; duration: 13 weeks, diet, Testis: Damage", "value": 59.1, "unit": "mg/kg-day"}
    ]},
    {"smiles": "CC(Cl)C(Cl)Cl", "note": "(centres undefined) [1,1,2-Trichloropropane]", "values": [
      {"measurement": "LOAEL", "setting": "[2]; [19]", "value": 150, "unit": "mg/kg-day"},
      {"measurement": "NOEL", "setting": "[2]; [19]", "value": 15, "unit": "mg/kg-day"},
      {"measurement": "NOAEL", "setting": "[3]; subchronic, duration: 90 days, drinking water, Sprague-Dawley, Hepatic, Other", "value": 14, "unit": "mg/kg-day"}
    ]},
    {"smiles": "O=C(OCc1ccccc1)c1ccccc1O", "note": "[Benzyl salicylate]", "values": [
      {"measurement": "LEL", "setting": "[9]; oral", "value": 11.1, "unit": "mg/kg-day"},
      {"measurement": "LEL", "setting": "[10]", "value": 3.7, "unit": "mg/kg-day"}
    ]},
    {"smiles": "C=CC#N", "note": "[Acrylonitrile]", "values": [
      {"measurement": "NOAEL", "setting": "[8]; duration: 60 days, gavage, Testes: Decreased sperm counts + Testes: Seminiferous tubule degeneration", "value": 1, "unit": "mg/kg-day"},
      {"measurement": "LOAEL", "setting": "[2]; chronic, duration: 2 years, inhalation, Degeneration and inflammation of nasal respiratory epithelium + hyperplasia of mucous secreting cells", "value": 43, "unit": "mg/m3"},
      {"measurement": "LOAEL", "setting": "[11]", "value": 0.09, "unit": "mg/kg-day"}
    ]},
    {"smiles": "BrCBr", "note": "[Dibromomethane]", "values": [
      {"measurement": "LOAEL", "setting": "[12]; [20]", "value": 500, "unit": "mg/kg-day"},
      {"measurement": "NOAEL", "setting": "[12]; [20]", "value": 150, "unit": "mg/kg-day"},
      {"measurement": "LOAEL", "setting": "[12]; [21]", "value": 150, "unit": "mg/kg-day"},
      {"measurement": "NOAEL", "setting": "[12]; [21]", "value": 50, "unit": "mg/kg-day"},
      {"measurement": "LOAEL", "setting": "[12]; [22]", "value": 500, "unit": "mg/kg-day"},
      {"measurement": "NOAEL", "setting": "[12]; [22]", "value": 150, "unit": "mg/kg-day"},
      {"measurement": "NOAEL", "setting": "[3]; short-term, duration: 28 days, drinking water, Sprague-Dawley, Hematologic", "value": 8.6, "unit": "mg/kg-day"}
    ]},
    {"smiles": "CCCCCC", "note": "[n-Hexane]", "values": [
      {"measurement": "LOAEL", "setting": "[3]; subchronic, duration: 8 weeks, gavage, M, Wistar, Nervous", "value": 785, "unit": "mg/kg-day"}
    ]},
    {"smiles": "[Mo].[O-2].[O-2].[O-2].[O-2]", "note": "[Tetraoxomolybdate(2-)]", "values": [
      {"measurement": "LOAEL", "setting": "[1]", "value": 2.6, "unit": "mg/kg-day"},
      {"measurement": "NOAEL", "setting": "[1]", "value": 0.26, "unit": "mg/kg-day"}
    ]},
    {"smiles": "O=C(O)CCCCC(=O)O", "note": "[Hexanedioic acid]", "values": [
      {"measurement": "LD50", "setting": "[13]; acute, dermal, occlusive, New Zealand", "value": "> 7940", "unit": "mg/kg"},
      {"measurement": "NOAEL", "setting": "[13]; developmental, duration: 13 days, oral, gavage, Dutch-belted", "value": "> 250", "unit": "mg/kg-day"},
      {"measurement": "LD50", "setting": "[14]", "value": 1900, "unit": "mg/kg"},
      {"measurement": "LC50", "setting": "[12]; acute, Inhalation, Sprague-Dawley", "value": "> 7.7", "unit": "µg/mL"},
      {"measurement": "LD50", "setting": "[12]; acute, oral, Sprague-Dawley", "value": 5050, "unit": "mg/kg"},
      {"measurement": "NOAEL", "setting": "[12]; developmental, duration: 10 days, oral, Wistar", "value": "> 288", "unit": "mg/kg-day"},
      {"measurement": "NOAEL", "setting": "[3]; chronic, duration: 2 years, diet, albino, Whole Body Effects", "value": 470, "unit": "mg/kg-day"}
    ]},
    {"smiles": "CNc1ccccc1", "note": "[N-Methylaniline]", "values": [
      {"measurement": "NOAEL", "setting": "[3]; short-term, duration: 28 days, gavage, CD, Hematologic, Immune", "value": 5, "unit": "mg/kg-day"}
    ]},
    {"smiles": "ClC=C(Cl)Cl", "note": "[Trichloroethylene]", "values": [
      {"measurement": "NOEL", "setting": "[7]; duration: 13 weeks, gavage, M/F, Histopathology: Lung-Pulmonary vasculitis Kidney-Cytomegaly/Karyomegaly, Renal tubular epithelial cell in the inner cortex", "value": 1000, "unit": "mg/kg-day"},
      {"measurement": "LOAEL", "setting": "[1]", "value": 7, "unit": "mg/kg-day"},
      {"measurement": "NOAEL", "setting": "[1]", "value": 0.7, "unit": "mg/kg-day"},
      {"measurement": "LOAEL", "setting": "[15]; chronic, duration: 30 weeks, drinking water, F, Decreased thymus weight in female B6C3F1 mice", "value": 0.35, "unit": "mg/kg-day"},
      {"measurement": "LOAEL", "setting": "[15]; developmental, drinking water, M/F, reduced plaque-forming cell (pfc) response, increased delayed-type hypersensitivity in b6c3f1 mice", "value": 0.37, "unit": "mg/kg-day"},
      {"measurement": "LOAEL", "setting": "[16]; chronic, duration: 1 years, M/F", "value": 0.37, "unit": "mg/kg-day"},
      {"measurement": "LOAEL", "setting": "[16]; chronic, duration: 30 weeks, F", "value": 0.35, "unit": "mg/kg-day"},
      {"measurement": "LOAEL", "setting": "[16]; developmental, duration: 364 days, M/F", "value": 0.37, "unit": "mg/kg-day"}
    ]},
    {"smiles": "O=[Se]([O-])[O-].[Na+].[Na+]", "note": "[Sodium selenite]", "values": [
      {"measurement": "NOEL", "setting": "[7]; drinking water, F, Deaths + Body Weight Changes: decrease + Water Consumption: decrease + Hematology: Hct increase, Hgb increase, RBC increase + Blood …", "value": 0.17, "unit": "mg/kg-day"},
      {"measurement": "NOEL", "setting": "[7]; drinking water, M/F, Deaths + Body Weight Changes: decrease + Water Consumption: decrease + Hematology: Hct increase, Hgb increase, RBC increase + Blood …", "value": 0.304, "unit": "mg/kg-day"},
      {"measurement": "LOAEL", "setting": "[5]", "value": 1, "unit": "mg/kg-day"},
      {"measurement": "NOAEL", "setting": "[5]", "value": 0.5, "unit": "mg/kg-day"}
    ]},
    {"smiles": "[CH3][Hg]/[N]=C(\\N)NC#N", "note": "[Methyl mercury dicyandiamide]", "values": [
      {"measurement": "LOAEL", "setting": "[5]", "value": 0.064, "unit": "mg/kg-day"},
      {"measurement": "NOAEL", "setting": "[5]", "value": 0.0064, "unit": "mg/kg-day"}
    ]},
    {"smiles": "O=C(O)c1ccccc1", "note": "[Benzoic acid]", "values": [
      {"measurement": "LEL", "setting": "[9]; injection, subcutaneous", "value": 1, "unit": "µg/100 g"},
      {"measurement": "LEL (ug/100 g BW)", "setting": "[9]; injection, subcutaneous", "value": 10}
    ]},
    {"smiles": "Brc1cc(Br)c(Oc2cc(Br)c(Br)cc2Br)cc1Br", "note": "[2,2',4,4',5,5'-Hexabromodiphenyl ether]", "values": [
      {"measurement": "LOAEL", "setting": "[15]; [23]", "value": 0.9, "unit": "mg/kg-day"},
      {"measurement": "NOAEL", "setting": "[15]; [23]", "value": 0.45, "unit": "mg/kg-day"},
      {"measurement": "LOEL", "setting": "[17]; P0: Morris water maze (latency, last trial) + P0: Morris water maze (latency, middle trial) + P0: Morris water maze (latency, reversal trial…", "value": 0.9, "unit": "mg/kg-day"},
      {"measurement": "LOEL", "setting": "[17]; P0: Morris water maze (latency, middle trial)", "value": 9, "unit": "mg/kg-day"}
    ]},
    {"smiles": "c1ccc(Nc2cccc3ccccc23)cc1", "note": "[N-Phenyl-1-naphthylamine]", "values": [
      {"measurement": "NOAEL", "setting": "[18]", "value": 290, "unit": "mg/kg-day"}
    ]}
  ]
}
